# Measurements taken from patent US20040033936A1, “Production, stabilisation and use of reduced forms of pharmaceutical compounds” (priority 2000, published 2004).
# Experiments:
# [1] = Qualitative assessment of reduction of methylene blue in aqueous solution (visual colour change blue to colourless); format: physicochemical; conditions: for Rate/extent of reduction: neutral, final pH about 6.5; for Rate of reduction: compared to neutral pH
# Experimental: In aqueous solution, the oxidised form of methylene blue has a deep blue coloration, and the reduced (leuco) form is colourless and clear. Reduction of methylene blue can therefore be determined by observation of a colour change from blue to colourless. In the present experiments, the colour change was measured by eye against a white background, but instrumentation, e.g. a visible range spectrophotometer, could also be used.
# Individual reducing agents or combinations of reducing agents were added to a solution of methylene blue. […] Reduction of methylene blue was assessed by visual observation of colour change. […] The pH of the final solution of methylene blue and reducing agent(s) was about pH 6.5 in each case (here referred to as “neutral”).
# Individual reducing agents or combinations of reducing agents were added, in solution; to a methylene blue solution which had been made either acid or alkaline using acetic acid or sodium hydroxide, respectively. The effect of pH on reduction of methylene blue was determined. Reduction of methylene blue was assessed by visual observation of colour change. The rate of reduction (if any) was compared to the rates of reduction at neutral pH.
# In the present context, “acid” refers to a pH adjusted to approximately 3.7 using acetic acid, and “alkali” refers to a pH adjusted to approximately 9.8 using sodium hydroxide. The results are as follows: […]
# [2] = Qualitative assessment of reduction of thionine in aqueous solution (visual colour change blue/purple to colourless); format: physicochemical; conditions: thionine 50 mg/30 ml; reducing agents 250 mg/3 ml
# Experimental: The following reducing agents or combinations of reducing agents (250 mg/3 ml) were added to an aqueous solution of thionine (50 mg/30 mU. Reduction of thionine was determined by visual observation of colour change from blue/purple to colourless. All experiments used 1.67 mg/mI (50 mg/30 ml) thionine solution. Ascorbic acid, L-cysteine or glutathione was used in solution at 83.3 mg/mi (250 mg/3 ml).
# [3] = acid, pH approximately 3.7 (acetic acid)
# [4] = alkali, pH approximately 9.8 (sodium hydroxide)
Rate/extent of reduction [1],"Rate of reduction [1, 4]",Rate of reduction [2],Structure (SMILES),"Rate of reduction [1, 3]"
partial reduction,–,–,"CC(=O)N[C@@H](CS)C(=O)O [N-acetyl-L-cysteine, N-acetyl L-cysteine]",–
no reduction over 15 minutes,slight reduction over 10-15 minutes,no reduction,N[C@@H](CCC(=O)N[C@@H](CS)C(=O)NCC(=O)O)C(=O)O [glutathione],no observable reduction (as with neutral)
no reduction,–,–,CSCC[C@H](N)C(=O)O [methionine],–

# Further lines, the compound ahead of its results:
Structure (SMILES),Rate/extent of reduction [1],"Rate of reduction [1, 4]",Rate of reduction [2],"Rate of reduction [1, 3]"
"Cl.N[C@@H](CS)C(=O)O [L-cysteine, L-cysteine hydrochloride]",no reduction,–,–,–
O=C1O[C@H]([C@@H](O)CO)C(O)=C1O [ascorbic acid],reduced slowly over 10-15 minutes,no change in rate compared to neutral,reduced in about 10-15 minutes,no change in rate compared to neutral
O=S([O-])S(=O)[O-].[Na+].[Na+] [sodium hydrosulphite],very rapid reduction,–,rapid reduction,–
O=S([O-])S(=O)(=O)[O-].[Na+].[Na+] [sodium metabisulphite],no reduction,–,–,–
